In PMC8863579, “Effects of pharmacological inhibition of the sodium‐dependent phosphate cotransporter 2b (NPT2b) on intestinal phosphate absorption in mouse and rat models” (Pharmacology Research & Perspectives, 2022):
“And” between values parts separate entries of the source, which are not always exact repeats. Identical values can stand only once. Like-named read-outs stand apart in the source and are kept apart here.

Legend:
[1] = Pharmacokinetic study in mice; type: in vivo, mouse; details: for bioavailability: po
Experimental: Male CD‐1 male mice were orally dosed with 1, 3, or 10 mg/kg API of LY3358966 SDD dissolved in water or were IV dosed with 1 mg/kg LY3358966 formulated in 25% dimethylacetamide, 15% ethanol, 10% propylene glycol, 25% 2‐pyrrolidone, and 25% water. Each dose group contained six animals. Three animals were bled at 0.25, 0.5, 1, 2, 4, 8, 12, and 24 h, with each animal being bled at alternate time points. Plasma drug levels were determined by HPLC/MS. The unbound fraction of LY3358966 in plasma was determined with equilibrium dialysis and LC‐MS/MS.

intestinal NPT2b = molecular target: T1, intestinal NPT2b (Mus musculus, UniProt Q9DBP0); assay: Acute phosphate uptake into plasma in mice; type: in vivo; details: for ED50: mouse, po, read-out: ED50, inhibition of acute phosphate uptake into plasma; for Emax, maximum inhibition of phosphate uptake into plasma: oral
T1 construct: from tissue; host or cells: intestine of live male C57BL/6 mice, oral dosing
T1 sequence (Q9DBP0 1-697): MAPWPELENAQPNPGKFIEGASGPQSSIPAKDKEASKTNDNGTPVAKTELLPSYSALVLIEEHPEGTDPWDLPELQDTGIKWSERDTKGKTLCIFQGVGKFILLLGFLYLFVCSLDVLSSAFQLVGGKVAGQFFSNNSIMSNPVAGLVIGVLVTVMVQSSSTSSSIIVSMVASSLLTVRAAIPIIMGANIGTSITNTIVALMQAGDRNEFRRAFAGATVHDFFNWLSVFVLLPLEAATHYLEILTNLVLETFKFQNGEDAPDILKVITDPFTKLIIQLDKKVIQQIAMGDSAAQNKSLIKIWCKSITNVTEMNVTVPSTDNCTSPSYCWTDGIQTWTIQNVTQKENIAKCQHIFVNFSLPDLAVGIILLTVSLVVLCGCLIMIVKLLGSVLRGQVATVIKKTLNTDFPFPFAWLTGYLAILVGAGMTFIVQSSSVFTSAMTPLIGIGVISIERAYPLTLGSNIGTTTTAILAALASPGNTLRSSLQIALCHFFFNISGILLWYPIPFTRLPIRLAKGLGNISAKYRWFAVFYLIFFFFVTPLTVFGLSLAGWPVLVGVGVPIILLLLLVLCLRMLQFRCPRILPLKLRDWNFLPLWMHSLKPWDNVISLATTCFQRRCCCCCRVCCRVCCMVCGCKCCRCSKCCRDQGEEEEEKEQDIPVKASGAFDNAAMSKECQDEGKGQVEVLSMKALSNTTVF
Experimental: Male C57BL/6 male mice (n = 7–9/group) at the age of about 8–9 weeks (21–29 g) were fasted overnight and throughout the study. Mice were dosed orally with varying doses of LY3358966 SDD dissolved in water or a PVP‐VA vehicle control. Fifteen minutes later, a radioactive phosphate dosing solution (200 µl of 16.25 mM Na2HPO4, 0.9% saline, pH 7.4 supplemented with about one million dpm of H3 ^33PO4) was given by oral gavage. This dose of phosphate was chosen because it approximates the mouse equivalent of the amount of bioavailable phosphate in a human meal which is 4 mg/kg phosphorus, or 320 mg phosphorus for an 80 kg person on a phosphate restricted diet. Fifteen minutes later, blood was collected and radioactivity in the plasma was determined by scintillation counting. The inhibition of acute phosphate uptake into plasma by LY3358966 was determined by comparing the counts in the plasma from LY3358966‐treated animals to that in the plasma of the vehicle‐treated animals. ED50 values were then determined with a 4‐parameter logistic curve fitting model using GraphPad Prism 7.04.
To test the ability of LY3358966 to inhibit intestinal NPT2b activity in mice over time, the above mice were bled again at 3 h post compound dose to determine the residual radioactivity in the plasma. At 4 h post compound dose, the animals were again dosed with phosphate using threefold more H3 ^33PO4 than used in the first oral dose. Fifteen minutes later, blood was collected and radioactivity in the plasma was used to calculate LY3358966 inhibition of phosphate uptake into plasma. For this calculation, the residual counts at 3 h were first subtracted from the final counts at 4 h. The 3‐h counts were typically <15% of the 4‐h counts.

[2] = test system: intestinal phosphate absorption; assay: Recovery of radiolabeled phosphate in feces of mice; type: in vivo, mouse
Experimental: Male C57BL/6 male mice, 9 weeks old (23–28 g, n = 10/group), were dosed with either placebo or LY3358966 SDD (9 mg/kg API) dissolved in water at t = −4.25, −0.25, and 3.75 h. The animals were fasted from t = −4 to t = 0 h. At t = 0, the animals were dosed with radiolabeled phosphate as described above and were given free access to food. Feces were collected at 6, 24, and 48 h, digested overnight at 37°C in 1 N NaOH, and the recovered radioactivity was determined. Most of the radiolabeled phosphate was recovered in the first 24 h. […] In all cases, the investigators collecting feces were blinded to the treatment.

[3] = test system: intestinal phosphate absorption; assay: Recovery of radiolabeled phosphate in feces of rats; type: in vivo, rat; details: LY3358966 10 mg/kg
Experimental: Male Sprague Dawley rats, 260–287 g for the first study and 274–362 g for the second study, were fasted for 4 h (the first 4 h of the light cycle) then dosed with placebo, a 50 or 150 mg/kg sevelamer HCl water dispersion, LY3358966 SDD (10 mg/kg API) dissolved in water, or a combination of LY3358966 SDD and sevelamer HCl. Fifteen minutes later, the animals were dosed with radiolabeled phosphate as described above. In the first study, the animals were given free access to food, then feces were collected at 6, 24, and 48 h post radiolabeled phosphate dose. In the second study, the animals were fasted an additional 4 h, then feces, stomach, small intestine, and large intestine were individually collected. The gastrointestinal tract tissues and feces were digested overnight at 37°C in 1 N NaOH, and the recovered radioactivity was determined.

[4] = across all dose groups, from unbound fraction 0.005
[5] = male, CD-1, mouse, plasma, IV 1 mg/kg
[6] = male, CD-1, mouse, plasma, PO 1 mg/kg
[7] = male, CD-1, mouse, plasma, PO 3 mg/kg
[8] = male, CD-1, mouse, plasma, PO 10 mg/kg
[9] = 9 mg/kg API x 3 doses at 4-h intervals

CC1(C)CN(C(=O)NCCCCO)CCN1Cc1cccc(C(=O)Nc2sc3c(c2C(=O)Nc2cc(F)c(CCc4ccc(C(=O)O)cc4)c(F)c2)CCCC3)c1 [LY3358966, 4‐[2‐[2,6‐difluoro‐4‐[[2‐[[3‐[[4‐(4‐hydroxybutylcarbamoyl)‐2,2‐dimethyl‐piperazin‐1‐yl]methyl]benzoyl]amino]‐4,5,6,7‐tetrahydrobenzothiophene‐3‐carbonyl]amino]phenyl]ethyl]benzoic acid]
C max of unbound LY3358966 [1, 4]: < 1 nM | plasma AUC of unbound LY3358966 [1, 4]: < 0.002 µM·h | AUC [1, 5]: 0.323 µM·h | half-life [1, 5]: 300 min | Cmax [1, 6]: 25 nM | Tmax [1, 6]: 24 min | AUC ([1]; male, CD-1, mouse, plasma, PO 1 mg/kg, SDD dissolved in water): 0.039 µM·h | Cmax [1, 7]: 50 nM | Tmax [1, 7]: 24 min | AUC ([1]; male, CD-1, mouse, plasma, PO 3 mg/kg, SDD dissolved in water): 0.096 µM·h | Cmax [1, 8]: 83 nM | Tmax [1, 8]: 24 min | AUC ([1]; male, CD-1, mouse, plasma, PO 10 mg/kg, SDD dissolved in water): 0.284 µM·h | bioavailability ([1]; male, CD-1, mouse, plasma, 1 mg/kg, PO 1 mg/kg, read-out: F (bioavailability)): 12% | bioavailability ([1]; male, CD-1, mouse, plasma, 3 mg/kg, PO 3 mg/kg, read-out: F (bioavailability)): 10% | bioavailability ([1]; male, CD-1, mouse, plasma, 10 mg/kg, PO 10 mg/kg, read-out: F (bioavailability)): 9% | bioavailability ([1]; male, CD-1, mouse, plasma, 10 mg/kg, PO 1, 3 and 10 mg/kg, read-out: oral bioavailability F): 9 to 12% | ED50 (intestinal NPT2b; 15 min post LY3358966 dose): 0.15 mg/kg | ED50 (intestinal NPT2b; 4 h post LY3358966 dose): 1.1 mg/kg | Emax, maximum inhibition of phosphate uptake into plasma (intestinal NPT2b; 15 min post LY3358966 dose): 74% | Emax, maximum inhibition of phosphate uptake into plasma (intestinal NPT2b; 4 h post LY3358966 dose): 79% | 33P Recovered in Feces (0-6 hrs), Mean ± SEM [2, 9]: 6.08 ± 1.68% | 33P Recovered in Feces (6-24 hrs), Mean ± SEM [2, 9]: 10.77 ± 1.57% | 33P Recovered in Feces (24-48 hrs), Mean ± SEM [2, 9]: 1.60 ± 0.08% | 33P Recovered in Total Feces (0-48 hrs), Mean ± SEM ([2]; 9 mg/kg API x 3 doses at 4-h intervals, 9 mg/kg): 18.44% and 18.44 ± 1.27% | increase in radiolabeled phosphate recovered in feces versus vehicle ([2]; 48 h, 9 mg/kg API x 3, 9 mg/kg): 8.6 % of the dose and 8.58 % of the dose | NPT2b inhibitor mediated recovery in feces (difference between placebo and LY3358966-treated groups) ([3]; 48 h, 10 mg/kg): 5.3% and 5.34% | 33P Recovered in Feces (0-6 hrs), Mean ± SEM [3]: 0.23 ± 0.19% | 33P Recovered in Feces (6-24 hrs), Mean ± SEM [3]: 16.62 ± 1.04% | 33P Recovered in Feces (24-48 hrs), Mean ± SEM [3]: 1.44 ± 0.14% | 33P Recovered in Feces Total (0-48 hrs), Mean ± SEM ([3]; 10 mg/kg): 18.29 ± 1.04%
